According to patent EP0517918B1, “MONOCLONAL ANTIBODY AGAINST CARDIAC GLYCOSIDE AND UTILIZATION THEREOF” (SUNTORY LIMITED, priority 1990, dated 1992):

Tested on: Na^+,K^+-ATPase
Assay: Na^+,K^+-ATPase inhibition rate (potassium ion concentration antagonist type), molybdate colorimetry
Type: biochemical
Conditions: 1 µM
Experimental: It is known that ouabain inhibits the enzyme activity of Na^+,K^+-ATPase. As such the Na^+,K^+-ATPase inhibitory activity of the various substances used as antigens in Example 4, Part B was examined to investigate the correlation between that inhibitory activity and reactivity with the monoclonal antibody of the present invention.
1.35 ml of TES buffer (80 mM TES, 200 mM NaCl, 9 mM MgSO4·7H2O and 10 mM EGTA adjusted to pH 7.4 with NaOH), 0.27 ml of 0.2% ODG (octyl-D-glucoside), 0.27 ml of 10^-5 M sample (10^-6 M during reaction), and 0.44 ml of distilled water were added to a plastic test tube which was then placed in an incubator at 25°C. 0.27 ml of 1 mM or 100 mM KCl and 50 µl of ATPase solution (stock solution, in which 5 units of […] (Sigma) were dissolved in 2 ml of 10 mM TES (pH 7.4) diluted 2.5 times with 10 mM TES (pH 7.4) as necessary) were added followed by incubation for 5 - 10 minutes at 25°C. Next, the reaction was started by addition of 50 µl of ATP solution (71 mg of ATP dissolved in 5 ml of 10 mM TES (pH 7.4) (Sigma)).
The reaction was allowed to proceed at 25°C for 30 minutes in the case of using 1 mM KCl (0.1 mM in the reaction solution), and for 10 minutes in the case of using 100 mM KCl (10 mM in the reaction solution). Next, 0.03 ml of 1% Triton™ X-100 solution (in distilled water) and 0.3 ml of 2.5% AmM solution (5 g of (NH4)6Mo7O24·4H2O dissolved in 6 N H2SO4 and brought to a volume of 200 ml) were mixed immediately prior to use (for a total of 0.33 ml) and then added to the reaction solution followed by incubation for 10 minutes at 25°C to stop the reaction and develop color. The absorbance of the reaction solution was then measured at 660 nm and the Na^+,K^+-ATPase inhibition rate (%) was calculated according to the following formula. Na^+ ,K^+ -ATPase Inhibition Rate (%) = [(Ao -Aw )/Ao ] × 100 [formula] Ao: Na^+,K^+-ATPase activity when sample not added Aw: Na^+,K^+-ATPase activity when sample added

[1] = 0.1 mM K^+ in the reaction solution, sample 10^-6 M during reaction, 30 minutes at 25°C
[2] = 10 mM K^+ in the reaction solution, sample 10^-6 M during reaction, 10 minutes at 25°C

Row | Compound | (Na^+,K^+-ATPase Inhibition) Rate (%) 0.1 mM K^+ [1] | (Na^+,K^+-ATPase Inhibition) Rate (%) 10 mM K^+ [2] | (Na^+,K^+-ATPase Inhibition) Rate (%) 0.1 mM K^+ | (Na^+,K^+-ATPase Inhibition) Rate (%) 10 mM K^+
1 | C[C@H]1CCCC[C@H]1O (relative stereo) [cis-2-Methylcyclohexanol] | -2% | 2% |  | 
2 | O=C1C=CCO1 [2(5H)-Furanone] | 6% | -5% |  | 
3 | CCCCC/C=C\C/C=C\C/C=C\C/C=C\CCCC(=O)O [Arachidonic acid] | -5% | -2% |  | 
4 | C[C@H](CCC(=O)O)[C@H]1CC[C@H]2[C@@H]3[C@H](O)C[C@@H]4C[C@H](O)CC[C@]4(C)[C@H]3C[C@H](O)[C@]12C [Cholic acid] | 2% | -3% |  | 
5 | C[C@]12C[C@H](O)[C@H]3[C@@H](CCC4=CC(=O)CC[C@@]43C)[C@@H]1CC[C@@H]2C(=O)CO [Corticosterone] | -4% | 1% |  | 
6 | OC1CCCCC1 [Cyclohexanol] | -3% | 0.4% |  | 
7 | C[C@]12CC[C@H](O)C[C@H]1CC[C@@H]1[C@@H]2CC[C@]2(C)[C@@H](C3=CC(=O)OC3)CC[C@]12O [Digitoxigenin] |  |  | 44% | 17%
8 | C[C@H]1O[C@@H](O[C@H]2[C@@H](O)C[C@H](O[C@H]3[C@@H](O)C[C@H](O[C@H]4CC[C@@]5(C)[C@H](CC[C@@H]6[C@@H]5CC[C@]5(C)[C@@H](C7=CC(=O)OC7)CC[C@]65O)C4)O[C@@H]3C)O[C@@H]2C)C[C@H](O)[C@@H]1O [Digitoxin] | 41% | 11% |  | 
9 | C[C@H]1O[C@@H](O[C@H]2[C@@H](O)C[C@H](O[C@H]3[C@@H](O)C[C@H](O[C@H]4CC[C@@]5(C)[C@H](CC[C@@H]6[C@@H]5C[C@@H](O)[C@]5(C)[C@@H](C7=CC(=O)OC7)CC[C@]65O)C4)O[C@@H]3C)O[C@@H]2C)C[C@H](O)[C@@H]1O [Digoxin] |  |  | 45% | 18%
10 | C[C@]12CCC(=O)C=C1CC[C@@H]1[C@@H]2[C@@H](O)C[C@@]2(C)[C@H]1CC[C@]2(O)C(=O)CO [Hydrocortisone] | -3% | -1% |  | 
11 | C[C@@H]1OC(O)[C@H](O)[C@H](O)[C@H]1O (stereo partly drawn) [L-Rhamnose] | -2% | -4% |  | 
12 | CCCCC/C=C\C/C=C\CCCCCCCC(=O)O [Linoleic acid] | -7% | -5% |  | 
13 | CCCCCCCCCCCCCCCCOC[C@@H](O)COP(=O)([O-])OCC[N+](C)(C)C [LisoPAF, L-α-lysophosphatidylcholine-γ-O-hexadecyl] | -2% | 0.4% |  | 
14 | C[C@]12C[C@@H](O)[C@H]3[C@@H](CC[C@]4(O)C[C@@H](O)C[C@@H](O)[C@]34CO)[C@@]1(O)CC[C@@H]2C1=CC(=O)OC1 [Ouabagenin] | 44% | 6% |  | 
15 | C[C@@H]1O[C@@H](O[C@H]2C[C@@H](O)[C@]3(CO)[C@H]4[C@H](O)C[C@]5(C)[C@@H](C6=CC(=O)OC6)CC[C@]5(O)[C@@H]4CC[C@]3(O)C2)[C@H](O)[C@H](O)[C@H]1O [Ouabain] | 41% | 18% |  | 
16 | CCCCCCCCCCCCCCCCOC[C@H](COP(=O)([O-])OCC[N+](C)(C)C)OC(C)=O [PAF, L-d-phosphatidylcholine-β-aceyl-γ-O-hexadecyl] | -3% | 1% |  | 
17 | CC(=O)[C@H]1CC[C@H]2[C@@H]3CCC4=CC(=O)CC[C@]4(C)[C@H]3CC[C@]12C [Progesterone] | 3% | 5% |  | 
18 | C[C@]12CC[C@H](O)C[C@@H]1CC[C@@H]1[C@@H]2CC[C@]2(C)[C@@H](C3=CC(=O)OC3)CC[C@]12O [Uzarigenin] |  |  | 42% | 6%
19 | C1CC[C@H]2CCC[C@H]2C1 [cis-Hydrindane] | -1% | 0.5% |  | 
20 | C[C@]12CCC(=O)C=C1CC[C@@H]1[C@@H]2[C@@H](O)C[C@]2(C=O)[C@@H](C(=O)CO)CC[C@@H]12 [α-Aldosterone] | 1% | -11% |  | 
